In US20240148821A1, “PHARMACEUTICAL USE OF CYCLIC PEPTIDE COMPOUND” (CHUGAI SEIYAKU KABUSHIKI KAISHA, priority 2021, published 2024):
Read-outs that look alike come from different tables or passages of the source. Bridge positions count the residues as written; N and C are the ends. Square brackets hold non-standard residues; d marks the D form. Peptide text beside a SMILES is read from it. hPhe(3,5-F2-4-CF3) = N[C@@H](CCc1cc(F)c(C(F)(F)F)c(F)c1)C(=O)O; NEtPhe(4-Me) = CCN[C@@H](Cc1ccc(C)cc1)C(=O)O; NMeGly(cPent) = CN[C@H](C(=O)O)C1CCCC1; NMeD = CN[C@@H](CC(=O)O)C(=O)O; NMeL = CN[C@@H](CC(C)C)C(=O)O; NMeA = CN[C@@H](C)C(=O)O; Ac5c = NC1(C(=O)O)CCCC1; Aze = O=C(O)[C@@H]1CCN1; Sar = CNCC(=O)O

Tests used:
[1] = test system: Human pancreatic cancer cell line AsPC-1 (G12D mutation Kras); assay: AsPC-1 cell growth inhibition (AsPC-1 CGI); format: cell-based; conditions: read-out: AsPC-1 cell growth inhibition, 50% growth inhibitory concentration (IC50 value); 96 hours, CellTiter-Glo, values classified in ranges
Procedure: Test compounds were serially dilated with dimethyl sulfoxide, and 200 nL was then dispensed to a U-bottom 96-well plate using Labcyte Echo. […] The cell suspension was dispensed to a. plate containing a test compound at 100 μL per well and incubated at 37° C. in a 5% carbon dioxide gas incubator. 96 hours later, 80 μL of CellTiter-Glo (Promega) was added to each well and fluorescence was measured.

[2] = test system: various cancer cell lines (Ras mutation or amplification); assay: Measurement of cell growth inhibitory activity against various cancer cell lines (CellTiter-Glo); format: cell-based, human
Procedure: Various cancer cell lines used were purchased from commercial suppliers. […] The cell suspension and culture medium supplemented with serum were dispensed to a plate containing the test compounds at 40 μL (384 well plate) or 200 μL (96 well plate) per well and incubated in a carbon dioxide gas incubator. […] Six days or seven days after the start of cultivation, 20 μL of CellTiter-Glo (Promega) was added to each well and fluorescence was measured.

[3] = test system: non-small cell lung cancer cell line NC1-1441 with a KRAS mutation; assay: In vivo antitumor activity, mouse xenograft model, NCI-H441; conditions: NCI-H441 (NSCLC) xenograft, 14 days
Excerpt: (§1) Tumor growth inhibition rate (TGI %)=(1−TV/CV)×100

[4] = test system: large bowel carcinoma cell line LS 180; assay: In vivo antitumor activity, mouse xenograft model, LS 180; conditions: LS 180 (Colon) xenograft, 7 days
Excerpt: as §1

[5] = test system: large bowel carcinoma cell line LoVo; conditions: LoVo (Colon) xenograft, 10 mg/kg once daily, 10 days
Procedure: (§2) Each type of cell line was subcutaneously grafted into nude mice, which were randomized after tumor size reached 200 to 300 mm^3, and compound administration (once daily) was initiated (Day 0). The solvents used to dissolve the compounds were DMSO and Cremophor EL. […] From the tumor volume data on the last measurement day, the tumor growth inhibition rate (TGI %: Tumor Growth Inhibition %) was calculated using the following expressions.
(§3) tumor volume (mm^3):½×long diameter (mm)×short diameter (mm)×short diameter (mm)
(§4) amount of change in tumor volume (mm^3)=tumor volume after Day 0−tumor volume at Day 0 • TV: average value of amount of change in tumor volume in administered group • CV: average value of amount of change in tumor volume in non-administered group

[6] = test system: pancreatic cancer cell line MIA PaCa-2; conditions: MIA PaCa-2 (Pancreas) xenograft, 14 days
Procedure: as §2, §3, §4

[7] = test system: pancreatic cancer cell line KP4; conditions: KP4 (Pancreas) xenograft, 10 days
Procedure: as §2, §3, §4

[8] = test system: gastric cancer cell line MKN-1 with an amplified copy number of the KRAS gene; conditions: MKN1 (Stomach) xenograft, 10 days
Procedure: as §2, §3, §4

CC[C@H](C)[C@@H]1NC(=O)[C@H](CC(C)C)N(C)C(=O)C[C@@H](C(=O)N(C)C)N(C)C(=O)[C@H](C2CCCC2)N(C)C(=O)C2(CCCC2)NC(=O)[C@@H]2CCCN2C(=O)[C@H](CCc2cc(F)c(C(F)(F)F)c(F)c2)NC(=O)CN(C)C(=O)[C@H](Cc2ccc(C)cc2)N(CC)C(=O)[C@@H]2CCN2C(=O)[C@H](C)N(C)C1=O [Compound 1217, (5S,8S,11S,15S,18S,23aS,29S,35S,37aS)-8-((S)-sec-butyl)-18-cyclopentyl-29-(3,5-difluoro-4-(trifluoromethyl)phenethyl)-36-ethyl-1l-isobutyl-N,N,5,6,12,16,19,33-octamethyl-35-(4-methylbenzyl)-4,7,10,13,17,20,23,28,31,34,37-undecaoxotetratriacontahydro-2H,4H-spiro[azeto[2,1-u]pyrrolo[2,1-i][1,4,7,10,13,16,19,22,25,28,31]undecaazacyclotetratriacontine-21,1′-cyclopentane]-15-carboxamide] ([NMeL]I[NMeA][Aze][NEtPhe(4-Me)][Sar][hPhe(3,5-F2-4-CF3)]P[Ac5c][NMeGly(cPent)][NMeD]-NMe2; lactam N-11)
IC50 [1]: ≤ 20 nM
IC50 ([2]; A549, NSCLC, KRAS G12S): 0.3 nM
IC50 ([2]; AGS, Stomach, KRAS G12D): 0.32 nM
IC50 ([2]; AML-193, AML, NRAS G13V): 11.8 nM
IC50 ([2]; AsPC-1, Pancreas, KRAS G12D): 0.87 nM
IC50 ([2]; C-643, Thyroid, HRAS G13R): 3.24 nM
IC50 ([2]; CFPAC-1, Pancreas, KRAS G12V): 17.3 nM
IC50 ([2]; COR-L23, NSCLC, KRAS Amp (G12V)): 2.85 nM
IC50 ([2]; Calu-6, NSCLC, KRAS Q61K): 43.7 nM
IC50 ([2]; DLD-1, Colon, KRAS G13D): 5.08 nM
IC50 ([2]; DMS 53, SCLC, KRAS Amp): 12.2 nM
IC50 ([2]; FAMPAC, Pancreas, KRAS G12V): 2.09 nM
IC50 ([2]; HCC-44, NSCLC, KRAS G12C): 0.55 nM
IC50 ([2]; HCC-1171, NSCLC, KRAS G12C): 4.86 nM
IC50 ([2]; HCT-116, Colon, KRAS G13D): 8.58 nM
IC50 ([2]; HEC-50B, Endometrium, KRAS G12D): 43.8 nM
IC50 ([2]; HEC-151, Endometrium, NRAS G12D): 2.42 nM
IC50 ([2]; HLG-1, NSCLC, KRAS G12V): 3.29 nM
IC50 ([2]; HPAC, Pancreas, KRAS G12D): 2.19 nM
IC50 ([2]; HuG1-N, Stomach, KRAS Amp): 3.74 nM
IC50 ([2]; IPC-298, Skin, NRAS Q61L): 23.5 nM
IC50 ([2]; KE-39, Stomach, KRAS Amp): 0.8 nM
IC50 ([2]; KLE, Endometrium, KRAS Amp): 170 nM
IC50 ([2]; KMM-1, Myeloma, NRAS G13D): 8.59 nM
IC50 ([2]; KP4, Pancreas, KRAS G12D): 3.3 nM
IC50 ([2]; KURAMOCHI, Ovary, KRAS Amp): 1.18 nM
IC50 ([2]; LS 174T, Colon, KRAS G12D): 4.31 nM
IC50 ([2]; LS 180, Colon, KRAS G12D): 0.83 nM
IC50 ([2]; LS513, Colon, KRAS G12D): 3.69 nM
IC50 ([2]; LoVo, Colon, KRAS G13D): 5.5 nM
IC50 ([2]; MIA PaCa-2, Pancreas, KRAS G12C): 1.45 nM
IC50 ([2]; MKN-1, Stomach, KRAS Amp): 1.77 nM
IC50 ([2]; MOLT-4, ALL, NRAS G12C): 175 nM
IC50 ([2]; NCI-H23, NSCLC, KRAS G12C): 3.92 nM
IC50 ([2]; NCI-H358, NSCLC, KRAS G12C): 1.55 nM
IC50 ([2]; NCI-H441, NSCLC, KRAS G12V): 1.12 nM
IC50 ([2]; NCI-H460, NSCLC, KRAS Q61H): 4.2 nM
IC50 ([2]; NCI-H929, Myeloma, NRAS G13D): 9.79 nM
IC50 ([2]; NCI-H1373, NSCLC, KRAS G12C): 2.33 nM
IC50 ([2]; NCI-H1385, NSCLC, KRAS G12C): 14.3 nM
IC50 ([2]; NCI-H1792, NSCLC, KRAS G12C): 0.86 nM
IC50 ([2]; NCI-H1944, NSCLC, KRAS G13D): 2.53 nM
IC50 ([2]; NCI-H2009, NSCLC, KRAS G12A): 2.35 nM
IC50 ([2]; NCI-H2030, NSCLC, KRAS G12C): 4.05 nM
IC50 ([2]; NCI-H2122, NSCLC, KRAS G12C): 0.8 nM
IC50 ([2]; NOMO-1, AML, KRAS G13D): 6.5 nM
IC50 ([2]; PA-1, Ovary, NRAS G12D): 2.38 nM
IC50 ([2]; PANC-1, Pancreas, KRAS G12D): 44.3 nM
IC50 ([2]; RERF-LC-Ad2, NSCLC, KRAS G12V): 5.2 nM
IC50 ([2]; SK-CO-1, Colon, KRAS G12V): 0.49 nM
IC50 ([2]; SK-LU-1, NSCLC, KRAS G12D): 26 nM
IC50 ([2]; SK-MEL-30, Skin, NRAS Q61K): 91.6 nM
IC50 ([2]; SNU-1, Stomach, KRAS G12D): 0.46 nM
IC50 ([2]; SW403, Colon, KRAS G12V): 4.1 nM
IC50 ([2]; SW480, Colon, KRAS G12V): 4.31 nM
IC50 ([2]; T.T, Esophageal, KRAS Amp): 5.68 nM
IC50 ([2]; TYK-nu, Ovary, NRAS G12D, Q61K): 1.14 nM
IC50 ([2]; UM-UC-3, Bladder, KRAS G12C): 2.11 nM
TGI (%) ([3]; 3 mg/kg once daily): 59%
TGI (%) ([3]; 5 mg/kg once daily): 92%
TGI (%) ([3]; 10 mg/kg once daily): 110%
TGI (%) ([4]; 3 mg/kg once daily): 11%
TGI (%) ([4]; 5 mg/kg once daily): 38%
TGI (%) ([4]; 10 mg/kg once daily): 65%
TGI (%) [5]: 85%
TGI (%) ([6]; 3 mg/kg once daily): 16%
TGI (%) ([6]; 5 mg/kg once daily): 65%
TGI (%) ([6]; 10 mg/kg once daily): 149%
TGI (%) ([7]; 5 mg/kg once daily): 65%
TGI (%) ([7]; 10 mg/kg once daily): 104%
TGI (%) ([8]; 5 mg/kg once daily): 55%
TGI (%) ([8]; 10 mg/kg once daily): 205%
